The subject of one test is HCT116-MTAP-KO. The test is described as follows: Cell killing in HCT116 isogenic pair (Cell Titer-Glo viability), MTAP knock-out cells. Type of test: cell-based, human. The note with it: Homo sapiens, HCT-116, 144 h, 6 days incubation, 0-10 μM, * = more than 50% viability inhibition at tested concentration without a full curve. The procedure, abridged: (§1)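 Viability was read by CellTiter-Glo luminescence after 6 days of compound treatment (0–10 μM final, 37° C, 5% CO2), and IC50 values were fitted. The isogenic HCT116 pair, MTAP-KO clone versus mock-KO MTAP-wildtype, was grown in RPMI 1640 plus 10% FBS and seeded the day before.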
On the technique in general: Cellular ATP, detected with luciferase, serves as a proxy for viable cell number.

The subject of a further test is HCT116-mock-RNA-KO. Nature of the test: Cell killing in HCT116 isogenic pair (Cell Titer-Glo viability), mock knock-out cells with MTAP wildtype genotype. Type of test: cell-based, human. The settings on record: Homo sapiens, HCT-116, 144 h, 6 days incubation, 0-10 μM. The procedure, abridged:
as §1

`CN(C(=O)c1cc2nc(N)c3c(c2[nH]1)COC3)[C@@H]1COC2(CC2)c2cc(C3CC3)ccc21` [Example 172, (S)-5-amino-N-(7′-cyclopropylspiro[cyclopropane-1,1′-isochroman]-4′-yl)-N-methyl-6,8-dihydro-1H-furo[3,4-d]pyrrolo[3,2-b]pyridine-2-carboxamide]: the half-inhibitory concentration (IC50) in the test on HCT116-MTAP-KO stood at 33 nM; in the test on HCT116-mock-RNA-KO, 5050 nM.

Turning to `C[C@H](c1ccc(C2CC2)cc1F)N(C)C(=O)c1cc2nc(N)c3c(c2[nH]1)COC3` [Example 173, (R)-5-amino-N-(1-(4-cyclopropyl-2-fluorophenyl)ethyl)-N-methyl-6,8-dihydro-1H-furo[3,4-d]pyrrolo[3,2-b]pyridine-2-carboxamide], the figures for the half-inhibitory concentration (IC50) in the test with HCT116-MTAP-KO and with HCT116-mock-RNA-KO were 67 nM and 5920 nM, respectively.

`C[C@@H](c1ccc(C2CC2)cc1F)N(C)C(=O)c1cc2nc(N)c3c(c2[nH]1)COC3` [Example 174, (S)-5-amino-N-(1-(4-cyclopropyl-2-fluorophenyl)ethyl)-N-methyl-6,8-dihydro-1H-furo[3,4-d]pyrrolo[3,2-b]pyridine-2-carboxamide]: the IC50 with HCT116-MTAP-KO worked out at 478 nM; in the test with HCT116-mock-RNA-KO it was 6070 nM.

Take `CCN(C(=O)c1cc2nc(N)c3c(c2[nH]1)CO[C@@H]3C)[C@H](C)c1ccc(C2CC2)cc1F` [Example 175, (R)-5-amino-N—((R)-1-(4-cyclopropyl-2-fluorophenyl)ethyl)-N-ethyl-6-methyl-6,8-dihydro-1H-furo[3,4-d]pyrrolo[3,2-b]pyridine-2-carboxamide]: the half-maximal inhibitory concentration (IC50) is 14 nM in the test with HCT116-MTAP-KO and 704 nM in the test with HCT116-mock-RNA-KO.

For `CCN(C(=O)c1cc2nc(N)c3c(c2[nH]1)CO[C@@H]3C)[C@@H](C)c1ccc(C2CC2)cc1F` [Example 176, (R)-5-amino-N—((S)-1-(4-cyclopropyl-2-fluorophenyl)ethyl)-N-ethyl-6-methyl-6,8-dihydro-1H-furo[3,4-d]pyrrolo[3,2-b]pyridine-2-carboxamide], the half-maximal inhibitory concentration (IC50) was 452 nM in the test with HCT116-MTAP-KO and 1780 nM in the test with HCT116-mock-RNA-KO.

For `CCN(C(=O)c1cc2nc(N)c3c(c2[nH]1)COC3)[C@H](C)c1ccc(C2CC2)cc1F` [Example 177, (R)-5-amino-N-(1-(4-cyclopropyl-2-fluorophenyl)ethyl)-N-ethyl-6,8-dihydro-1H-furo[3,4-d]pyrrolo[3,2-b]pyridine-2-carboxamide], the values for the IC50 in the test with HCT116-MTAP-KO and in the test on HCT116-mock-RNA-KO were 74 nM and 2690 nM, respectively.

For `CCN(C(=O)c1cc2nc(N)c3c(c2[nH]1)COC3)[C@@H](C)c1ccc(C2CC2)cc1F` [Example 178, (S)-5-amino-N-(1-(4-cyclopropyl-2-fluorophenyl)ethyl)-N-ethyl-6,8-dihydro-1H-furo[3,4-d]pyrrolo[3,2-b]pyridine-2-carboxamide], the IC50 in the test with HCT116-MTAP-KO worked out at 1040 nM; in the test with HCT116-mock-RNA-KO it was 3270 nM.

With `CN(C(=O)c1cc2nc(N)c3c(c2[nH]1)COC3)[C@@H]1COC2(CC2)c2cc(Br)ccc21` [Example 179, (S)-5-amino-N-(7′-bromospiro[cyclopropane-1,1′-isochroman]-4′-yl)-N-methyl-6,8-dihydro-1H-furo[3,4-d]pyrrolo[3,2-b]pyridine-2-carboxamide], the concentration for half-maximal inhibition (IC50) in the test on HCT116-MTAP-KO was determined as 24 nM; in the test on HCT116-mock-RNA-KO it was 4390 nM.

`C[C@H]1OCc2c1c(N)nc1cc(C(=O)N(C)[C@@H]3COC4(CC4)c4cc(Br)ccc43)[nH]c21` [Example 180, (R)-5-amino-N—((S)-7′-bromospiro[cyclopropane-1,1′-isochroman]-4′-yl)-N,6-dimethyl-6,8-dihydro-1H-furo[3,4-d]pyrrolo[3,2-b]pyridine-2-carboxamide]: the values for the 50% inhibitory concentration (IC50) in the test with HCT116-MTAP-KO and in the test on HCT116-mock-RNA-KO were 20 nM and 3570 nM, respectively.

In the case of `CN1CC[C@@H](N(C)C(=O)c2cc3nc(N)c4c(c3[nH]2)COC4)c2ccc(C(F)(F)F)cc21` [Example 181, (R)-5-amino-N-methyl-N-(1-methyl-7-(trifluoromethyl)-1,2,3,4-tetrahydroquinolin-4-yl)-6,8-dihydro-1H-furo[3,4-d]pyrrolo[3,2-b]pyridine-2-carboxamide], the 50% inhibitory concentration (IC50) came to 15 nM with HCT116-MTAP-KO and 1800 nM in the test on HCT116-mock-RNA-KO.

What is called IC50 is the point on the concentration scale where inhibition reaches its midpoint. Lower therefore signals greater potency.

(Values after patent US20240368177A1, “5-AMINO-6,8-DIHYDRO-1H-FURO[3,4-d]PYRROLO[3,2-b]PYRIDINE-2-CARBOXAMIDE DERIVATIVES AS MTA-COOPERATIVE INHIBITORS OF PRMT5” (BeiGene Switzerland GmbH, priority 2023, published 2024).)
